This data set is described as follows: molar enthalpy of vaporization or sublimation. To be noted: Calvet microcalorimetry.

The values that follow come from the NIST ThermoML archive (doi:10.1016/j.jct.2009.04.017).

Structures are written as SMILES. ± gives the expanded uncertainty stated by the source.

For `Oc1ccccc1Br` [phenol, 2-bromo-], the molar enthalpy reads like this: (298.15 K, Liquid) 13.3 ± 0.621 kcal/mol; (329.2 K, Liquid) 13.3 ± 0.621 kcal/mol. Regarding `Oc1ccc(Br)cc1` [4-bromophenol], where the note is “298.15 K, Crystal”, the molar enthalpy was 19.9 ± 0.765 kcal/mol.
